Laboratory results reported in ChEMBL document CHEMBL4342522 (J Med Chem, 2020).
One block for each compound: values may come before it. Calls of active or inactive are those of the source. No cut-off for these calls is given here.

Assays:
[1] = AUC in mouse at 1 mg/kg, iv; type: ADME, organism-based; conditions: in vivo
[2] = Half life in rat at 1 mg/kg, po; type: ADME, organism-based; conditions: in vivo
[3] = AUC in monkey at 0.3 mg/kg, po; type: ADME, organism-based, Macaca mulatta; conditions: rhesus monkey, in vivo
[4] = Half life in mouse at 1 mg/kg, iv; type: ADME, organism-based; conditions: in vivo
[5] = AUC in dog at 0.3 mg/kg, po; type: ADME, organism-based, Canis lupus familiaris; conditions: in vivo
[6] = Oral bioavailability in rat at 1 mg/kg; type: ADME, organism-based; conditions: in vivo
[7] = system: SKM-1; test: Antiproliferative activity against human SKM1 cells assessed as reduction in cell viability after 5 days by CellTiter-Glo assay; type: functional, cell-based; conditions: SKM-1, 120 h
[8] = Half life in mouse at 1 mg/kg, po; type: ADME, organism-based; conditions: in vivo
[9] = Half life in dog at 0.1 mg/kg, iv; type: ADME, organism-based, Canis lupus familiaris; conditions: in vivo
[10] = Fraction of drug absorbed in mouse portal vein in mouse at 1 mg/kg, po; type: ADME, organism-based; conditions: in vivo
[11] = Volume of distribution at steady state in rat at 1 mg/kg, iv; type: ADME, organism-based; conditions: in vivo, read-out: Vdss
[12] = Oral bioavailability in dog at 0.3 mg/kg; type: ADME, organism-based, Canis lupus familiaris; conditions: in vivo
[13] = Volume of distribution at steady state in dog at 0.1 mg/kg, iv; type: ADME, organism-based, Canis lupus familiaris; conditions: in vivo, read-out: Vdss
[14] = Cmax in dog at 1 mg/kg, po; type: ADME, organism-based, Canis lupus familiaris; parameters: dose 1 mg/kg, route oral; conditions: in vivo
[15] = Tmax in dog at 1 mg/kg, po; type: ADME, organism-based, Canis lupus familiaris; conditions: in vivo
[16] = Clearance in dog plasma at 0.1 mg/kg, iv; type: ADME, organism-based, Canis lupus familiaris
[17] = Cmax in rat at 1 mg/kg, po; type: ADME, organism-based; parameters: dose 1 mg/kg, route oral; conditions: in vivo
[18] = Cmax in mouse at 1 mg/kg, po; type: ADME, organism-based; parameters: dose 1 mg/kg, route oral; conditions: in vivo
[19] = Clearance in rat plasma at 1 mg/kg, iv; type: ADME, organism-based
[20] = Tmax in monkey at 1 mg/kg, po; type: ADME, organism-based, Macaca mulatta; conditions: rhesus monkey, in vivo
[21] = Unbound hepatic clearance in mouse liver microsomes; type: ADME, Microsome
[22] = system: NCI-H1299; test: Antiproliferative activity against human H1299 cells assessed as reduction in cell viability after 5 days by CellTiter-Glo assay; type: functional, cell-based; conditions: NCI-H1299, 120 h
[23] = Half life in rat at 1 mg/kg, iv; type: ADME, organism-based; conditions: in vivo
[24] = Half life in monkey at 0.3 mg/kg, po; type: ADME, organism-based, Macaca mulatta; conditions: rhesus monkey, in vivo
[25] = Unbound hepatic clearance in rat liver microsomes; type: ADME, Microsome
[26] = Clearance in mouse plasma at 1 mg/kg, iv; type: ADME, organism-based
[27] = Fraction of drug absorbed in mouse portal vein in monkey at 1 mg/kg, po; type: ADME, organism-based, Macaca mulatta; conditions: rhesus monkey, in vivo
[28] = AUC in rat at 1 mg/kg, po; type: ADME, organism-based; conditions: in vivo
[29] = AUC in monkey at 0.3 mg/kg, iv; type: ADME, organism-based, Macaca mulatta; conditions: rhesus monkey, in vivo
[30] = AUC in mouse at 1 mg/kg, po; type: ADME, organism-based; conditions: in vivo
[31] = Volume of drug distribution in monkey at 0.3 mg/kg, iv; type: ADME, organism-based, Macaca mulatta; conditions: rhesus monkey, in vivo, read-out: Vdss
[32] = Fraction of drug absorbed in mouse portal vein in dog at 1 mg/kg, po; type: ADME, organism-based, Canis lupus familiaris; conditions: in vivo
[33] = Oral bioavailability in monkey at 0.3 mg/kg; type: ADME, organism-based, Macaca mulatta; conditions: rhesus monkey, in vivo
[34] = AUC in dog at 0.1 mg/kg, iv; type: ADME, organism-based, Canis lupus familiaris; conditions: in vivo
[35] = Half life in dog at 0.3 mg/kg, po; type: ADME, organism-based, Canis lupus familiaris; conditions: in vivo
[36] = Volume of distribution at steady state in mouse at 1 mg/kg, iv; type: ADME, organism-based; conditions: in vivo, read-out: Vdss
[37] = Clearance in monkey plasma at 0.3 mg/kg, iv; type: ADME, organism-based, Macaca mulatta; conditions: rhesus monkey
[38] = Half life in monkey at 0.3 mg/kg, iv; type: ADME, organism-based, Macaca mulatta; conditions: rhesus monkey, in vivo
[39] = target: T1, Bromodomain testis-specific protein (Homo sapiens, UniProt Q58F21); test: Inhibition of BRDT BD1 (unknown origin) after 1 hr by TR-FRET assay
[40] = Tmax in rat at 1 mg/kg, po; type: ADME, organism-based; conditions: in vivo
[41] = AUC in rat at 1 mg/kg, iv; type: ADME, organism-based; conditions: in vivo
[42] = Fraction of drug absorbed in mouse portal vein in rat at 1 mg/kg, po; type: ADME, organism-based; conditions: in vivo
[43] = target: T1, Bromodomain testis-specific protein; test: Inhibition of BRDT BD2 (unknown origin) after 1 hr by TR-FRET assay
[44] = Cmax in monkey at 1 mg/kg, po; type: ADME, organism-based, Macaca mulatta; parameters: dose 1 mg/kg, route oral; conditions: rhesus monkey, in vivo
[45] = Unbound hepatic clearance in human liver microsomes; type: ADME, Microsome
[46] = Permeability in dog MDCK cells by PAMPA; type: ADME, cell-based, Canis lupus familiaris; conditions: read-out: permeability
[47] = Oral bioavailability in mouse at 1 mg/kg; type: ADME, organism-based; conditions: in vivo
[48] = Tmax in mouse at 1 mg/kg, po; type: ADME, organism-based; conditions: in vivo
[49] = target: T2, Bromodomain-containing protein 4 (Homo sapiens, UniProt O60885); test: biochemical; type: cell-based
Description: Inhibition of human N-terminal His6 tagged BRD4 BD1 (57 to 168) residues expressed in Escherichia coli BL21(DE3) cells after 1 hr by TR-FRET assay

[50] = target: T2, Bromodomain-containing protein 4; test: Inhibition of human N-terminal His6 tagged BRD4 BD2 (352 to 457) residues expressed in Escherichia coli BL21(DE3) cells after 1 hr by TR-FRET assay
[51] = AUC in monkey at 0.1 mg/kg, iv; type: ADME, organism-based, Macaca mulatta; conditions: rhesus monkey, in vivo
[52] = Clearance in monkey plasma at 0.1 mg/kg, iv; type: ADME, organism-based, Macaca mulatta; conditions: rhesus monkey
[53] = Volume of distribution at steady state in monkey at 0.1 mg/kg, iv; type: ADME, organism-based, Macaca mulatta; conditions: rhesus monkey, in vivo, read-out: Vdss
[54] = Half life in monkey at 0.1 mg/kg, iv; type: ADME, organism-based, Macaca mulatta; conditions: rhesus monkey, in vivo
[55] = system: SKM-1; test: Antitumor activity against human SKM1 cells xenografted in SCID mouse assessed as tumor growth inhibition at 1 mg/kg, po qd for 21 days by caliper method; type: functional, organism-based
[56] = Unbound hepatic clearance in monkey liver microsomes; type: ADME, Macaca mulatta, Microsome; conditions: rhesus monkey

AUC [1]: 1440 ng·h/mL
half-life [2]: 1 h
half-life [4]: 1 h
AUC [5]: 644 ng·h/mL
bioavailability [6]: 7%
IC50 [7]: 5.2 nM
half-life [8]: 1 h
half-life [9]: 3.7 h
AUC [51]: 89 ng·h/mL
Vd [11]: 3.5 L/kg
bioavailability [12]: 74%
Vd [13]: 1.7 L/kg
clearance [52]: 20 mL/min/kg
Ki [49]: 120 nM
clearance [16]: 5.67 mL/min/kg
clearance [19]: 45.2 mL/min/kg
Ki [50]: 1.1 nM
CL free [21]: 700 mL/min/kg
IC50 [22]: 450 nM
half-life [23]: 1.4 h
CL free [25]: 1070 mL/min/kg
clearance [26]: 11.5 mL/min/kg
Vd [53]: 2.3 L/kg
AUC [28]: 27 ng·h/mL
half-life [54]: 1.5 h
AUC [30]: 760 ng·h/mL
bioavailability [33]: 0%
AUC [34]: 291 ng·h/mL
half-life [35]: 0.3 h
Vd [36]: 0.8 L/kg
AUC [41]: 384 ng·h/mL
CL free [45]: 90 mL/min/kg
Papp [46]: 7.68 ×10⁻⁶ cm/s
bioavailability [47]: 53%
CL free [56]: 533 mL/min/kg
Structure (SMILES): CCNC(=O)c1cc2c(-c3cc(S(=O)(=O)CC)ccc3Oc3c(C)cccc3C)cn(C)c(=O)c2[nH]1
inhibition [55]: Active

IC50 [7]: 2.6 nM
Ki [49]: 8.3 nM
Ki [50]: 0.7 nM
CL free [21]: 1600 mL/min/kg
IC50 [22]: 94 nM
CL free [25]: 1620 mL/min/kg
CL free [45]: 533 mL/min/kg
Papp [46]: 3.1 ×10⁻⁶ cm/s
Structure (SMILES): CCNC(=O)c1cc2c(-c3cc(S(=O)(=O)CC)ccc3Oc3cc(C)cc(C)c3)cn(C)c(=O)c2[nH]1

IC50 [7]: 110 nM
Ki [49]: 82 nM
Ki [50]: 0.8 nM
CL free [21]: 2000 mL/min/kg
IC50 [22]: 700 nM
CL free [25]: 1580 mL/min/kg
CL free [45]: 783 mL/min/kg
Papp [46]: 1.46 ×10⁻⁶ cm/s
Structure (SMILES): CCNC(=O)c1cc2c(-c3cc(S(=O)(=O)CC)ccc3Oc3c(C)cc(Cl)cc3C)cn(C)c(=O)c2[nH]1

IC50 [7]: 9.5 nM
Ki [49]: 180 nM
Ki [50]: 1.1 nM
CL free [21]: 750 mL/min/kg
IC50 [22]: 2600 nM
CL free [25]: 350 mL/min/kg
CL free [45]: 112 mL/min/kg
Papp [46]: 10.3 ×10⁻⁶ cm/s
Structure (SMILES): CCNC(=O)c1cc2c(-c3cc(S(=O)(=O)CC)ccc3-c3ccccc3C)cn(C)c(=O)c2[nH]1

Further lines, the compound ahead of its results:

Structure (SMILES): CCNC(=O)c1cc2c(-c3cc(C(C)(C)O)ccc3Oc3c(C)cc(F)cc3C)cn(C)c(=O)c2[nH]1 [ABBV-744]
AUC [1]: 3800 ng·h/mL
half-life [2]: 3.4 h
AUC [3]: 14 ng·h/mL
half-life [4]: 3 h
AUC [5]: 1050 ng·h/mL
bioavailability [6]: 24%
IC50 [7]: 6.7 nM
half-life [8]: 2.8 h
half-life [9]: 4.4 h
FaFg [10]: 81
Vd [11]: 5.3 L/kg
bioavailability [12]: 77%
Vd [13]: 1.5 L/kg
Cmax [14]: 116 ng/mL
Tmax [15]: 2.8 h
clearance [16]: 4 mL/min/kg
Cmax [17]: 12 ng/mL
Cmax [18]: 210 ng/mL
clearance [19]: 11.2 mL/min/kg
Tmax [20]: 1.5 h
CL free [21]: 750 mL/min/kg
IC50 [22]: 1600 nM
half-life [23]: 2.9 h
half-life [24]: 2.5 h
CL free [25]: 200 mL/min/kg
clearance [26]: 4.83 mL/min/kg
FaFg [27]: 19
AUC [28]: 120 ng·h/mL
AUC [29]: 200 ng·h/mL
AUC [30]: 2350 ng·h/mL
Vd [31]: 3.4 L/kg
FaFg [32]: 87
bioavailability [33]: 7%
AUC [34]: 460 ng·h/mL
half-life [35]: 4.2 h
Vd [36]: 1.3 L/kg
clearance [37]: 25.7 mL/min/kg
half-life [38]: 2 h
Ki [39]: 917 nM
Tmax [40]: 7.5 min
AUC [41]: 500 ng·h/mL
FaFg [42]: 52
Ki [43]: 1 nM
Cmax [44]: 5 ng/mL
CL free [45]: 143 mL/min/kg
Papp [46]: 2 ×10⁻⁶ cm/s
bioavailability [47]: 58%
Tmax [48]: 6 min

Structure (SMILES): Cc1cc(F)cc(C)c1Oc1ccc(C(C)(C)O)cc1-c1cn(C)c(=O)c2[nH]c(C(=O)NC3CC3)cc12
IC50 [7]: 6.2 nM
Ki [49]: 230 nM
Ki [50]: 0.5 nM
CL free [21]: 3330 mL/min/kg
IC50 [22]: 1900 nM
CL free [25]: 333 mL/min/kg
CL free [45]: 800 mL/min/kg
Papp [46]: 1.13 ×10⁻⁶ cm/s

Structure (SMILES): CCNC(=O)c1cc2c(-c3cc(S(C)(=O)=O)ccc3Nc3c(C)cccc3C)cn(C)c(=O)c2[nH]1
IC50 [7]: 68 nM
Ki [49]: 250 nM
Ki [50]: 4.3 nM
CL free [21]: 483 mL/min/kg
IC50 [22]: 3600 nM
CL free [25]: 433 mL/min/kg
CL free [45]: 117 mL/min/kg
Papp [46]: 3.59 ×10⁻⁶ cm/s

Structure (SMILES): Cn1cc(-c2cc(S(C)(=O)=O)ccc2Oc2ccc(F)cc2F)c2cc(C(N)=O)[nH]c2c1=O
IC50 [7]: 10 nM
Ki [49]: 8.6 nM
Ki [50]: 1.2 nM
CL free [21]: < 120 mL/min/kg
IC50 [22]: 600 nM
CL free [25]: < 68.3 mL/min/kg
CL free [45]: 76.7 mL/min/kg
Papp [46]: 2.4 ×10⁻⁶ cm/s
